What follows are compounds tested on BALL-1 (assay: cytotoxicity against human BALL1 cells by MTT assay).
Format: functional, cell-based

| Compound | IC50 [nM] |
| --- | --- |
| CCN(CC)c1ccc2cc(NC(=O)OCCCCCCCCCCCC(=O)[C@]34O[C@H]3C(C)(O)NC4=O)c(=O)oc2c1 (some centres undefined) | 1560 |
| CCCCCCCCCCCC(=O)[C@]12O[C@H]1C(C)(O)NC2=O (some centres undefined) | 1650 |
| C\C=C(/C=C(C)/C=C/CC/C=C(\C)C(=O)[C@]12O[C@H]1C(C)(O)NC2=O)C(=O)OC (some centres undefined) [EPOLACTAENE] | 3820 |
| CC1(O)NC(=O)[C@@]2(C(=O)CCCCCCCCCCCNC(=O)CCCC[C@@H]3SC[C@@H]4NC(=O)N[C@@H]43)O[C@@H]12 (some centres undefined) | 48300 |
